Legend:
CDK-2 = CDK-2 (Homo sapiens, UniProt P24941); experiment: CDK-2 enzyme activity inhibition (33P-ATP filter plate kinase assay); type: biochemical; conditions: read-out: CDK-2 inhibition IC50
Excerpt: [General Procedure for Measurement of CDK-2 Enzyme Activity Inhibition]

MAPKAP-K2 = MAPKAP-K2 (Homo sapiens, UniProt P49137); experiment: MAPKAP-K2 enzyme activity inhibition (33P-ATP filter plate kinase assay); type: biochemical; conditions: MAPKAP-K2 inhibitory activity; assays conducted at typically 1-100 μM; further: key: +: active; ++: more active; +++: very active
MAPKAP-K2, sequence (P49137 whole entry): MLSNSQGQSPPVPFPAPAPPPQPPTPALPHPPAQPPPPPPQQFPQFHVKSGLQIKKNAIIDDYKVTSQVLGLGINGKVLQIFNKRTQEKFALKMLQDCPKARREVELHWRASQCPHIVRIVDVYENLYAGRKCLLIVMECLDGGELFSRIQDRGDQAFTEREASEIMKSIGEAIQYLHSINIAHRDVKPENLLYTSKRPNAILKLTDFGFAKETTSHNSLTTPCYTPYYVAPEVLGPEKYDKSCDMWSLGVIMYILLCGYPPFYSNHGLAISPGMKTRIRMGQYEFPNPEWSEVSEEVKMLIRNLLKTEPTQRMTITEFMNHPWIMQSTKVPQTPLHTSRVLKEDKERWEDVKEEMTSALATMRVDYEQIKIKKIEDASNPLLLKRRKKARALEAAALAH

CDK-1 = CDK-1 (Homo sapiens, UniProt P06493); experiment: CDK-1 enzyme activity inhibition (33P-ATP filter plate kinase assay)
CDK-1, sequence (P06493 whole entry, species assumed): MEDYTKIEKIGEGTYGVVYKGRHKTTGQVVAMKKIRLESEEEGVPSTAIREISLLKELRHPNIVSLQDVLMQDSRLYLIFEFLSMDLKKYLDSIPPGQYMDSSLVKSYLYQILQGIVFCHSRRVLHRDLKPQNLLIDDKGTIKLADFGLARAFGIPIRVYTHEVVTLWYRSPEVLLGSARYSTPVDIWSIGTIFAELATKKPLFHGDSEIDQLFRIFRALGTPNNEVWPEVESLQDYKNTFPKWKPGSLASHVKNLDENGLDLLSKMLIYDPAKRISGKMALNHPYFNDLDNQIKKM
CDK-1, sequence (P14635 whole entry partner, species assumed): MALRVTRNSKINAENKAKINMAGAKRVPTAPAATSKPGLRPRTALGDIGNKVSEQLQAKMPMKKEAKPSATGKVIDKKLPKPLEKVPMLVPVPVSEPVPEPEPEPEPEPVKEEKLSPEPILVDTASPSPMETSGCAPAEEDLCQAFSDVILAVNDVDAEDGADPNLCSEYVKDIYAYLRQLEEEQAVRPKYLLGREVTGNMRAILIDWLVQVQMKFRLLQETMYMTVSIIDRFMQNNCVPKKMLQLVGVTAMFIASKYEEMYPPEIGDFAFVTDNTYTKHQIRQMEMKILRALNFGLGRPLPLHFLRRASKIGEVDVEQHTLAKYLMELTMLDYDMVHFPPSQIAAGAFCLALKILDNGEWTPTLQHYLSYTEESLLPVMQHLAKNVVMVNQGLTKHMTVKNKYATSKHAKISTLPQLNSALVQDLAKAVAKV
Method: [General Procedure for Measurement of CDK-1 Enzyme Activity Inhibition]
Compounds were dissolved in DMSO at a concentration of 10 mM and stored in aliquots at −20° C. Compounds in DMSO from these stock aliquots were diluted in DMSO to produce the required range of 30× stock solutions. These stock solutions were then subjected to 1:3 dilutions in order to prepare the required range of 10× stock solutions and 5 μL of each solution was used per 50 μL reaction.
The kinase reaction was conducted in a round-bottomed polypropylene 96-well plate. CDK-1 was diluted to 0.5 U/μL in diluent buffer (50 mM Tris/HCl. pH7.5, 0.1 mM EGTA, 0.1% (v/v) β-mercaptoethanol, 1 mg/mL BSA). 5 μL compound or 30% DMSO was added to each well followed by 25 μL substrate cocktail (final concentration: 10 μM ATP, 50 μM peptide ([sequence]), 0.5 μCi ^33P-γ-ATP in 50 mM Tris-HCl (pH 7.5), 1 mM EGTA, 2 mM DTT, 10 mM MgCl2, 0.01% Brij-35). The reaction was initiated with the addition of 20 μL enzyme solution per well or 20 μL of diluent buffer without enzyme. The plate was shaken for 10 seconds and then left at room temperature for 15 minutes. The reaction was terminated with 50 μL 150 mM phosphoric acid. 90 μL of the reaction mixture was then transferred into a 96-well P81 filter plate (Whatmann) and incubated at room temperature for 5 minutes. The filter plate was then washed 4 times with 200 μL 75 mM phosphoric acid per well on a plate vacuum manifold (Millipore) and dried in an oven for 2-3 hours. Packard MicroScint ‘0’ (30 μL) was then added to each well, the plate was miffed for 30 minutes and subjected to liquid scintillation counting on a Packard TopCount.

Row | Compound | IC50 (CDK-2) | activity (efficacy against MAPKAP-K2) (MAPKAP-K2) | melting point | IC50 (CDK-1)
1 | Cc1c(N[C@H]2CC[C@H](N)CC2)nc2ccnn2c1Nc1ccc(N2CCCCC2)cc1 [Compound 129] | < 100 µM | +++ | 58 to 66 °C | 
2 | CCOc1ccc(Nc2c(C)c(N[C@H]3CC[C@H](N)CC3)nc3c(CO)cnn23)cc1 [Compound 92] | < 100 µM |  | 101 to 104 °C | 
3 | Cc1c(N[C@H]2CC[C@H](N)CC2)nc2ccnn2c1Nc1ccc(-n2ccnc2)cc1 [Compound 118] | < 100 µM | +++ | 210 to 215 °C | 
4 | Cc1c(N[C@H]2CC[C@H](N)CC2)nc2ccnn2c1Nc1ccc(-c2cc3ccccc3s2)cc1 [Compound 289] | < 100 µM | +++ |  | 
5 | COCc1cccc(-c2ccc(Nc3c(C)c(N[C@H]4CC[C@H](N)CC4)nc4ccnn34)cc2)c1 [Compound 354] | < 100 µM | +++ |  | 
6 | Cc1c(N[C@H]2CC[C@H](N)CC2)nc2ccnn2c1Nc1ccc(OCc2ccccn2)cc1 [Compound 224] | < 100 µM | +++ |  | 
7 | CCOc1ccc(Nc2c(C)c(N[C@H]3CC[C@H](N)CC3)nc3c(C(=O)Nc4ccccn4)cnn23)cc1 [Compound 359] | < 100 µM | ++ |  | 
8 | N[C@H]1CC[C@H](Nc2cc(Nc3ccccc3Cl)n3ncc(I)c3n2)CC1 [Compound 47] | < 100 µM | ++ |  | 
9 | Cc1c(N[C@H]2CC[C@H](N)CC2)nc2ccnn2c1Nc1ccc(-c2ccccc2Cl)cc1 [Compound 313] | < 100 µM | ++ |  | 
10 | Cc1c(N[C@H]2CC[C@H](N)CC2)nc2ccnn2c1Nc1cccc(OCc2cccc(Cl)c2)c1 [Compound 247] | < 100 µM | ++ |  | 
11 | Cc1nn2c(Nc3ccc(F)c(Cl)c3)cc(N[C@H]3CC[C@H](N)CC3)nc2c1Br [Compound 6] | < 100 µM |  | 224 to 226 °C (dec.) | 
12 | Cc1c(N[C@H]2CC[C@H](N)CC2)nc2ccnn2c1Nc1ccc(-c2cncnc2)cc1 [Compound 311] | < 100 µM | +++ |  | 
13 | Cc1c(N[C@H]2CC[C@H](N)CC2)nc2ccnn2c1Nc1ccc(-c2cccc(N)c2)cc1 [Compound 288] | < 100 µM | +++ |  | 
14 | CCc1c(NC2CCCNC2)nc2ccnn2c1Nc1ccc(Br)cc1 (stereo not shown) [Compound 160] | < 100 µM | ++ |  | 
15 | Cc1c(N[C@H]2CC[C@H](N)CC2)nc2ccnn2c1Nc1ccc(-c2ccc(C(F)(F)F)cc2)cc1 [Compound 350] | < 100 µM | +++ |  | 
16 | Cc1c(N[C@H]2CC[C@H](N)CC2)nc2ccnn2c1Nc1ccc(-c2ccc(N(C)C)cc2)cc1 [Compound 314] | < 100 µM | +++ |  | 
17 | CCOc1ccc(Nc2c(C)c(N[C@@H]3CCNC3)nc3ccnn23)cc1 [Compound 412] | < 100 µM | ++ |  | 
18 | Cc1c(N[C@H]2CC[C@H](N)CC2)nc2ccnn2c1Nc1ccc(-c2cccc(CO)c2)cc1 [Compound 353] | < 100 µM | +++ |  | 
19 | Cc1c(N[C@H]2CC[C@H](N)CC2)nc2ccnn2c1Nc1ccc(-c2ccncc2)cc1 [Compound 299] | < 100 µM | +++ |  | 
20 | CC(=O)c1ccc(-c2ccc(Nc3c(C)c(N[C@H]4CC[C@H](N)CC4)nc4ccnn34)cc2)s1 [Compound 355] | < 100 µM | +++ |  | 
21 | N[C@H]1CC[C@H](Nc2cc(Nc3ccc(F)c(Cl)c3)n3ncc(I)c3n2)CC1 [Compound 49] | < 100 µM | ++ | 153 to 155 °C | 
22 | Cc1c(N[C@H]2CC[C@H](N)CC2)nc2ccnn2c1Nc1ccc(-c2cccc(OC(F)(F)F)c2)cc1 [Compound 316] | < 100 µM | +++ |  | 
23 | Cc1c(N[C@H]2CC[C@H](N)CC2)nc2ccnn2c1Nc1ccc(-c2cccc(F)c2)cc1 [Compound 304] | < 100 µM | +++ |  | 
24 | Cc1c(N[C@H]2CC[C@H](N)CC2)nc2ccnn2c1Nc1ccc(-c2ccc(N)cc2)cc1 [Compound 301] | < 100 µM | +++ |  | 
25 | CCCNc1c(C)c(N[C@H]2CC[C@H](N)CC2)nc2ccnn12 [Compound 87] | < 100 µM | ++ |  | 

Further lines, results first:

Row | IC50 (CDK-2) | activity (efficacy against MAPKAP-K2) (MAPKAP-K2) | melting point | IC50 (CDK-1) | Compound
26 | < 100 µM | +++ | 199 to 201 °C |  | CCc1c(N[C@H]2CC[C@H](N)CC2)nc2ccnn2c1Nc1cccc(I)c1 [Compound 60]
27 | < 100 µM | +++ | 165 to 168 °C |  | CC(C)c1c(N[C@H]2CC[C@H](N)CC2)nc2ccnn2c1Nc1ccc(F)c(Cl)c1 [Compound 115]
28 |  | +++ |  | < 100 µM | CCc1c(N[C@H]2CC[C@H](N)CC2)nc2ccnn2c1Nc1ccc(Cl)cc1 [Compound 26]
29 | < 100 µM | +++ | 150 to 152 °C |  | CCOc1cccc(Nc2c(CC)c(N[C@H]3CC[C@H](N)CC3)nc3ccnn23)c1 [Compound 61]
30 | < 100 µM | ++ | 63 to 65 °C |  | CCc1c(N[C@H]2CC[C@H](N)CC2)nc2ccnn2c1NCc1ccccc1Cl [Compound 38]
31 | < 100 µM | ++ | 104 to 106 °C |  | CCc1c(N[C@H]2CC[C@H](N)CC2)nc2ccnn2c1Nc1ccc(I)cc1 [Compound 168]
32 | < 100 µM | +++ | 209 to 212 °C |  | Cc1c(N[C@H]2CC[C@H](N)CC2)nc2ccnn2c1Nc1cccc(Cl)c1 [Compound 85]
33 | < 100 µM | +++ | 97 to 100 °C |  | Cc1c(N[C@H]2CC[C@H](N)CC2)nc2ccnn2c1Nc1cccc(CO)c1 [Compound 97]
34 | < 100 µM | +++ | 184 to 187 °C |  | CCc1c(N[C@H]2CC[C@H](N)CC2)nc2ccnn2c1Nc1ccc(Br)cc1 [Compound 159]
35 |  | +++ |  | < 100 µM | N[C@H]1CC[C@H](Nc2nc3ccnn3c(Nc3ccc(F)c(Cl)c3)c2Cc2ccccc2)CC1 [Compound 24]
36 | < 100 µM | +++ | 96 to 99 °C |  | Cc1c(N[C@H]2CC[C@H](N)CC2)nc2ccnn2c1Nc1ccccc1 [Compound 102]
37 | < 100 µM | +++ | 116 to 118 °C |  | CCCCOc1ccc(Nc2c(CCCO)c(N[C@H]3CC[C@H](N)CC3)nc3ccnn23)cc1 [Compound 53]
38 | < 100 µM | +++ | 144 to 148 °C |  | CCCCOc1ccc(Nc2c(CC)c(N[C@H]3CC[C@H](N)CC3)nc3ccnn23)cc1 [Compound 56]
39 |  | +++ |  | < 100 µM | CCc1c(N[C@H]2CC[C@H](N)CC2)nc2ccnn2c1Nc1ccc(C)c(C)c1 [Compound 30]
40 | < 100 µM | +++ | 185 to 187 °C |  | CSc1ccc(Nc2c(C)c(N[C@H]3CC[C@H](N)CC3)nc3ccnn23)cc1 [Compound 65]
41 | < 100 µM | ++ | 181 to 183 °C |  | CCc1c(N[C@H]2CC[C@H](N)CC2)nc2ccnn2c1Nc1ccc(OC)c(C(F)(F)F)c1 [Compound 113]
42 | < 100 µM | +++ | 102 to 104 °C |  | CCc1c(N[C@H]2CC[C@H](N)CC2)nc2ccnn2c1Nc1ccc(Oc2ccc(C)cc2)cc1 [Compound 57]
43 | < 100 µM | +++ | 100 to 108 °C |  | Cc1c(N[C@H]2CC[C@H](N)CC2)nc2ccnn2c1Nc1ccc2ncsc2c1 [Compound 112]
44 | < 100 µM | ++ | 181 to 185 °C |  | CCc1c(N[C@H]2CC[C@H](N)CC2)nc2ccnn2c1Nc1ccc(OC)c(OC)c1 [Compound 58]
45 | < 100 µM | +++ | 189 to 192 °C |  | CCc1c(N[C@H]2CC[C@H](N)CC2)nc2ccnn2c1Nc1ccc(OC)c(Cl)c1 [Compound 55]
46 | < 100 µM | +++ | 215 to 216 °C |  | Cc1c(N[C@H]2CC[C@H](N)CC2)nc2ccnn2c1Nc1cccc(Br)c1 [Compound 77]
47 | < 100 µM | +++ | 68 to 72 °C |  | Cc1c(N[C@H]2CC[C@H](N)CC2)nc2ccnn2c1Nc1ccc2c(c1)OCCO2 [Compound 126]
48 | < 100 µM | +++ | 145 to 150 °C |  | Cc1c(N[C@H]2CC[C@H](N)CC2)nc2ccnn2c1Nc1cccc(O)c1 [Compound 88]
49 | < 100 µM | ++ | 91 to 93 °C |  | C=C(C)CNc1c(CC)c(N[C@H]2CC[C@H](N)CC2)nc2ccnn12 [Compound 46]
50 | < 100 µM | +++ |  |  | CCc1c(N[C@H]2CC[C@H](N)CC2)nc2ccnn2c1Nc1cccc(C)c1 [Compound 72]
51 | < 100 µM | ++ | 206 to 210 °C |  | CCc1c(N[C@H]2CC[C@H](N)CC2)nc2ccnn2c1Nc1cccc(C(N)=O)c1 [Compound 151]
52 | < 100 µM | +++ | 210 to 215 °C |  | Cc1nc2ccc(Nc3c(C)c(N[C@H]4CC[C@H](N)CC4)nc4ccnn34)cc2s1 [Compound 155]

Reference: patent US7557110B2, “Pyrazolo[1,5-A] pyrimidine derivatives” (Teijin Pharma Limited, priority 2003, dated 2009)
